Results: patent publication US5968907A (priority 1997, dated 1999)

How the values were obtained:
CFA I pili = CFA I pili (Escherichia coli, UniProt P0CK93+P25734); experiment: biochemical; settings: read-out: inhibition of CFA I pili binding to glycophorin
[1] = target: heat-labile enterotoxin from E. coli (Escherichia coli, UniProt P0CK94); assay type: binding; settings: at the concentration employed in the assay
cholera toxin = cholera toxin (Vibrio cholerae serotype O1, UniProt P01556); experiment: biochemical; settings: read-out: inhibition of binding of cholera toxin to ganglioside GD1b
Chain of cholera toxin (P01556 22-124 limits assumed): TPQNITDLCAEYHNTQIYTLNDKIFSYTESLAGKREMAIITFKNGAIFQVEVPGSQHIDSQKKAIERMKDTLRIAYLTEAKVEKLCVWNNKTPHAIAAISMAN

Chain of CFA I pili (P0CK93 24-170): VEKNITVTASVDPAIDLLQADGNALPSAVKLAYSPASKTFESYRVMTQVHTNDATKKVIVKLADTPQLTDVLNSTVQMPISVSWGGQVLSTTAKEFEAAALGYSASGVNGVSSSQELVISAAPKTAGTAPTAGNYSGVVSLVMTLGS
Chain of CFA I pili (P25734 23-360): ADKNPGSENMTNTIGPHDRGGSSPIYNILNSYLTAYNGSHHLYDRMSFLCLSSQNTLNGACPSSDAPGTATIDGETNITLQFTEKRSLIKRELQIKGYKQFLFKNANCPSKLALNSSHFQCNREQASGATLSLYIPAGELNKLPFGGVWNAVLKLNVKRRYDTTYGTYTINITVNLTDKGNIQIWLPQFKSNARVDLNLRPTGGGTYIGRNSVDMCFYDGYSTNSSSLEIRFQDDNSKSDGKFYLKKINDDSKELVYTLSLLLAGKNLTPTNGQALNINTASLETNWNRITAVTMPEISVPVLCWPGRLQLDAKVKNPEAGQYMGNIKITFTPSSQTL
Chain of heat-labile enterotoxin from E. coli (P0CK94 whole entry, looked up): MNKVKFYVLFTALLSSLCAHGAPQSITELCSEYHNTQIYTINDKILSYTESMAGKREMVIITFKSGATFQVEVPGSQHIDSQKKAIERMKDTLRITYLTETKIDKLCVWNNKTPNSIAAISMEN

NC1CCCCC1S[C@@H]1O[C@H](CO)[C@H](O)[C@H](O)[C@H]1O (stereo partly drawn) [Example B2, 2-Aminocyclohex-1-yl 1-Thio-β-D-galactopyranoside]
inhibition at 1000 µg/mL (CFA I pili): 13 to 71%
inhibition of binding of heat-labile enterotoxin to ganglioside GD1b [1]: at least 20%

NC1CCCCC(S[C@@H]2O[C@H](CO)[C@H](O)[C@H](O)[C@H]2O)C1 (stereo partly drawn) [Example B5, 3-Aminocyclohept-1-yl 1-Thio-β-D-galactopyranoside]
inhibition at 1000 µg/mL (CFA I pili): 13 to 71%

O=C(O)[C@H](Cc1c[nH]cn1)NC1CCCCC1S[C@@H]1O[C@H](CO)[C@H](O)[C@H](O)[C@H]1O (stereo partly drawn) [Example H2, Nα-[2-(1-Thio-β-D-galactopyranosyl)cyclohex-1-yl]-L-histidine]
inhibition at 1000 µg/mL (CFA I pili): 13 to 71%
inhibition at 1000 µg/mL (cholera toxin): < 20%

CC(CC(S[C@@H]1O[C@H](CO)[C@H](O)[C@H](O)[C@H]1O)c1ccccc1)N[C@@H](Cc1c[nH]cn1)C(=O)O (stereo partly drawn) [Example H3, Nα-[4-Phenyl-4-(1-thio-β-D-galactopyranosyl)but-2-yl]-L-histidine]
inhibition at 1000 µg/mL (CFA I pili): 13 to 71%
inhibition at 1000 µg/mL (cholera toxin): ≥ 20%

O=C(O)[C@H](Cc1c[nH]cn1)NC1CCCCC(S[C@@H]2O[C@H](CO)[C@H](O)[C@H](O)[C@H]2O)C1 (stereo partly drawn) [Example H5, Nα-[3-(1-Thio-β-D-galactopyranosyl)cyclohept-1-yl]-L-histidine]
inhibition at 1000 µg/mL (CFA I pili): 13 to 71%
inhibition at 1000 µg/mL (cholera toxin): < 20%

CC1(C)CC(N[C@@H](Cc2c[nH]cn2)C(=O)O)CC1S[C@@H]1O[C@H](CO)[C@H](O)[C@H](O)[C@H]1O (stereo partly drawn) [Example H6, Nα-[4,4-Dimethyl-3-(1-thio-β-D-galactopyranosyl)-cyclopent-1-yl]-L-histidine]
inhibition at 1000 µg/mL (CFA I pili): 13 to 71%

O=C(O)[C@H](Cc1c[nH]cn1)NC1CCC(S[C@@H]2O[C@H](CO)[C@H](O)[C@H](O)[C@H]2O)C1 (stereo partly drawn) [Example H7, Nα-[3-(1-Thio-β-D-galactopyranosyl)cyclopent-1-yl]-L-histidine]
inhibition at 1000 µg/mL (CFA I pili): 13 to 71%

CC(CC(C)S[C@@H]1O[C@H](CO)[C@H](O)[C@H](O)[C@H]1O)N[C@@H](Cc1c[nH]cn1)C(=O)O (stereo partly drawn) [Example H8, Nα-[4-(1-Thio-β-D-galactopyranosyl)pent-2-yl]-L-histidine]
inhibition at 1000 µg/mL (CFA I pili): 13 to 71%
inhibition at 1000 µg/mL (cholera toxin): < 20%

CC1(C)CCC(N[C@@H](Cc2c[nH]cn2)C(=O)O)CC1S[C@@H]1O[C@H](CO)[C@H](O)[C@H](O)[C@H]1O (stereo partly drawn) [Example H9, Nα-[4,4-Dimethyl-3-(1-thio-β-D-galactopyranosyl)-cyclohex-1-yl]-L-histidine]
inhibition at 1000 µg/mL (CFA I pili): 13 to 71%
inhibition at 1000 µg/mL (cholera toxin): < 20%

O=C(O)[C@H](Cc1c[nH]cn1)NC1CCCC(S[C@@H]2O[C@H](CO)[C@H](O)[C@H](O)[C@H]2O)C1 (stereo partly drawn) [Example H10, Nα-[3-(1-Thio-β-D-galactopyranosyl)cyclohex-1-yl]-L-histidine]
inhibition at 1000 µg/mL (CFA I pili): 13 to 71%
inhibition at 1000 µg/mL (cholera toxin): < 20%

O=C(O)[C@H](Cc1c[nH]c2ccccc12)NC1CCCC1S[C@@H]1O[C@H](CO)[C@H](O)[C@H](O)[C@H]1O (stereo partly drawn) [Example I1, Nα-[2-(1-Thio-β-D-galactopyranosyl)cyclopent-1-yl]-L-tryptophan]
inhibition at 1000 µg/mL (CFA I pili): 13 to 71%
inhibition at 1000 µg/mL (cholera toxin): ≥ 20%

O=C(O)[C@H](Cc1c[nH]c2ccccc12)NC1CCCCC1S[C@@H]1O[C@H](CO)[C@H](O)[C@H](O)[C@H]1O (stereo partly drawn) [Example I2, Nα-[2-(1-Thio-β-D-galactopyranosyl)cyclohex-1-yl]-L-tryptophan]
inhibition at 1000 µg/mL (CFA I pili): 13 to 71%
inhibition at 1000 µg/mL (cholera toxin): < 20%
inhibition of binding of heat-labile enterotoxin to ganglioside GD1b [1]: at least 20%

CC1(C)CCC(N[C@@H](CCCNC(=N)N)C(=O)O)CC1S[C@@H]1O[C@H](CO)[C@H](O)[C@H](O)[C@H]1O (stereo partly drawn) [Example J9, Nα-[4,4-Dimethyl-3-(1-thio-β-D-galactopyranosyl)-cyclohex-1-yl]-L-arginine]
inhibition at 1000 µg/mL (CFA I pili): 13 to 71%
inhibition at 1000 µg/mL (cholera toxin): < 20%
